# Experimental data taken from patent US20140315886A1, “QUINAZOLINES AS THERAPEUTIC COMPOUNDS AND RELATED METHODS OF USE” (OTSUKA PHARMACEUTICAL CO., LTD., priority 2011, published 2014).
# Biological target: T1, purified STEP46 enzyme (Homo sapiens, UniProt P54829)
# T1 sequence (P54829 197-565 limits assumed): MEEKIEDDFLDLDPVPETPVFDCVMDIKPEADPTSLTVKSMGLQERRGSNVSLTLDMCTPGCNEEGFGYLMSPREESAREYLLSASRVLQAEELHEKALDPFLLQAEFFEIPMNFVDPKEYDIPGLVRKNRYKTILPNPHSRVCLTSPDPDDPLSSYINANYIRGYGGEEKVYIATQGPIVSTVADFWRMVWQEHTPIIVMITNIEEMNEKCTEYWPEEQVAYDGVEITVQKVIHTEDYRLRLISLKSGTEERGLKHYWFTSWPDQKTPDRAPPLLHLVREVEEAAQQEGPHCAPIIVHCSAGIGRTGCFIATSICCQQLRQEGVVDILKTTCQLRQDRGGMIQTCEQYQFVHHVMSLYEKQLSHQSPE
# Test: STEP46 biochemical assay (DiFMUP fluorescence phosphatase assay)
# Details: DiFMUP 10 μM, read-out: STEP IC50
# How it was run: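 Purified human STEP46 preincubated 30 min at room temperature with compounds in Hepes/DTT/Brij35 buffer (2% DMSO final), then reacted with 10 μM DiFMUP for 90 min at 27°C; fluorescence read at 360/460 nm. IC50 from four-parameter fit; activation shown as negative % inhibition at 25, 50, 100 uM.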
row,IC50,SMILES
1,1 to 10 µM,CC(Nc1nc(-c2cccnc2)nc2ccc(-c3cccc(F)c3F)cc12)c1ccccc1 (stereo not shown) [Compound 606]
2,1 to 10 µM,CNc1nc(-c2cnccn2)nc2cc(-c3cc(F)ccc3F)ccc12 [Compound 396]
3,< 1 µM,CNc1nc(-c2cccnc2)nc2c(C)c(-c3ccc4c(cnn4C)c3)ccc12 [Compound 298]
4,1 to 10 µM,CNc1nc(-c2cccnc2)nc2c(F)cc(-c3cc(F)ccc3F)cc12 [Compound 572]
5,> 10 µM,COc1ccc2nc(-c3cccnc3)nc(N3CCc4cc(Br)ccc43)c2c1 [Compound 6]
6,1 to 10 µM,CC(Nc1nc(-c2cccnc2)nc2ccc(-c3cccc(F)c3)cc12)c1ccccc1 (stereo not shown) [Compound 604]
7,1 to 10 µM,Fc1ccc(-c2ccc3c(NCCc4ccccn4)nc(-c4cccnc4)nc3c2)cc1 [Compound 340]
8,1 to 10 µM,Fc1cncc(Nc2nc(-c3cccnc3)nc3ccc(Cl)cc23)c1 [Compound 48]
9,1 to 10 µM,CNc1nc(-c2cccnc2)nc2c(Cl)cc(-c3cccc(F)c3)cc12 [Compound 264]
10,> 10 µM,CNc1nc(-c2cccnc2)nc2ccc(-c3ccc(S(=O)(=O)C(C)C)cc3)cc12 [Compound 256]
11,1 to 10 µM,CNc1nc(-c2cccnc2)nc2cc(C)c(-c3cccc(F)c3)cc12 [Compound 299]
12,< 1 µM,CNc1nc(-c2cccnc2)nc2c(F)c(-c3ccc(OC)c(F)c3)ccc12 [Compound 544]
13,1 to 10 µM,CNc1nc(-c2cccnc2)nc2c(F)c(-c3ccc(F)c(F)c3)ccc12 [Compound 517]
14,1 to 10 µM,CNc1nc(-c2cccnc2)nc2c(F)c(-c3ccsc3)ccc12 [Compound 527]
15,< 1 µM,CNc1nc(-c2cccnc2)nc2c(C)c(-c3cc(F)c(F)c(F)c3)ccc12 [Compound 289]
16,1 to 10 µM,CNc1nc(-c2cccnc2)nc2c(-c3ccc(F)c(F)c3)cccc12 [Compound 278]
17,< 1 µM,CNc1nc(-c2cccnc2)nc2ccc(-c3cccc(-c4nccs4)c3)cc12 [Compound 473]
18,1 to 10 µM,CN(C)c1nc(-c2cccnc2)nc2cc(-c3cc(F)c(F)c(F)c3)ccc12 [Compound 313]
19,> 10 µM,CNc1nc(-c2cccnc2)nc2c(OC)cc(-c3ccc(F)cc3)cc12 [Compound 259]
20,1 to 10 µM,CNc1nc(-c2cnccn2)nc2cc(-c3ccc(F)cc3)ccc12 [Compound 393]
21,1 to 10 µM,Clc1ccc2c(c1)CCN2c1nc(-c2cccnc2)nc2cc(-c3ccncc3)ccc12 [Compound 100]
22,> 10 µM,CNc1nc(-c2cccnc2)nc2ccc(-c3cccc(C)c3Cl)cc12 [Compound 268]
23,1 to 10 µM,CNc1nc(-c2cccnc2)nc2ccc(-c3cccc(OCCC(C)O)c3)cc12 (stereo not shown) [Compound 224]
24,> 10 µM,COc1ccc2c(c1)CCN2c1nc(-c2cccnc2)nc2ccc(Br)cc12 [Compound 21]
25,1 to 10 µM,CNc1nc(-c2cccnc2)nc2ccc(-c3ccc(F)cc3F)c(F)c12 [Compound 222]
26,1 to 10 µM,CNc1nc(-c2cncc(F)c2)nc2cc(-c3cc(F)ccc3F)ccc12 [Compound 157]
27,1 to 10 µM,CNc1nc(-c2cccnc2)nc2cc(OC(F)(F)F)c(-c3cccc(F)c3)cc12 [Compound 209]

row,IC50,SMILES
1,> 10 µM,CNc1nc(-c2cccnc2)nc2c(-c3cc(F)cc(F)c3)cccc12 [Compound 277]
2,1 to 10 µM,CNc1nc(-c2cccnc2)nc2cc(-c3ccc(F)cc3F)c(F)cc12 [Compound 551]
3,< 1 µM,CNc1nc(-c2cccnc2)nc2ccc(-c3ccc(F)c4ccoc34)cc12 [Compound 233]
4,1 to 10 µM,CNc1nc(-c2cccnc2)nc2c(F)c(-c3cccc(C#N)c3)ccc12 [Compound 511]
5,1 to 10 µM,CNc1nc(-c2cccnc2)nc2c(F)c(-c3cccc(C)c3)ccc12 [Compound 525]
6,1 to 10 µM,CNc1nc(-c2cccnc2)nc2cc(-c3cc(F)cc(OCCOC)c3)ccc12 [Compound 144]
7,1 to 10 µM,NC(=O)C1CN(c2nc(-c3cccnc3)nc3ccc(-c4ccc(F)cc4F)cc23)C1 [Compound 419]
8,1 to 10 µM,CNc1nc(-c2cccnc2)nc2c(-c3ccc(F)c(F)c3)ccc(OC)c12 [Compound 496]
9,1 to 10 µM,CC(Nc1nc(-c2cccnc2)nc2cc(-c3cc(F)cc(F)c3)ccc12)c1ccccn1 (stereo not shown) [Compound 370]
10,< 1 µM,Fc1ccc(-c2ccc3nc(-c4cccnc4)nc(-c4nccs4)c3c2)c(F)c1 [Compound 416]
11,1 to 10 µM,COC1CN(c2nc(-c3cccnc3)nc3ccc(-c4ccc(F)cc4F)cc23)C1 [Compound 413]
12,1 to 10 µM,Fc1ccc(-c2ccc3nc(-c4cccnc4)nc(N4CCc5ccc(Cl)cc54)c3c2)cc1 [Compound 93]
13,> 10 µM,Fc1ccc(CNc2nc(-c3cccnc3)nc3ccc(-c4cccc(F)c4F)cc23)cc1F [Compound 361]
14,> 10 µM,Cn1ccc2c(-c3ccc4nc(-c5cccnc5)nc(NCc5ccccn5)c4c3)cccc21 [Compound 341]
15,1 to 10 µM,CNc1nc(-c2cccnc2)nc2c(F)c(-c3cc(F)c(F)cc3F)ccc12 [Compound 522]
16,> 10 µM,Cc1c(-c2cccc(C#N)c2)ccc2c(N(C)C)nc(-c3cccnc3)nc12 [Compound 290]
17,1 to 10 µM,c1ccc(CCNc2nc(-c3cccnc3)nc3ccc(-c4cc5ccccc5o4)cc23)nc1 [Compound 345]
18,1 to 10 µM,Cc1c(-c2cc(F)c(F)c(F)c2)ccc2c(N(C)C)nc(-c3cccnc3)nc12 [Compound 292]
19,1 to 10 µM,Fc1cccc(-c2ccc3nc(-c4cccnc4)nc(N4CCc5cc(Cl)ccc54)c3c2)c1F [Compound 75]
20,1 to 10 µM,Fc1ccccc1-c1ccc2c(N3CCc4cc(Cl)ccc43)nc(-c3cccnc3)nc2c1 [Compound 95]
21,1 to 10 µM,CNc1nc(-c2cccnc2)nc2cc(OC(F)(F)F)c(-c3cccc(F)c3F)cc12 [Compound 404]
22,1 to 10 µM,CNc1nc(-c2cnccn2)nc2cc(-c3cc(F)cc(F)c3)ccc12 [Compound 398]
23,1 to 10 µM,Fc1ccc(-c2ccc3nc(-c4cccnc4)nc(N4CCC4)c3c2)c(F)c1 [Compound 411]
24,1 to 10 µM,Fc1ccc(-c2ccc3nc(-c4cccnc4)nc(N4CCc5cccnc54)c3c2)cc1 [Compound 443]
25,1 to 10 µM,CNc1nc(-c2cccnc2C)nc2ccc(-c3cccc(F)c3)cc12 [Compound 220]
26,< 1 µM,CNc1nc(-c2cccnc2)nc2cc(F)c(-c3ccc(F)cc3F)cc12 [Compound 196]
27,1 to 10 µM,CNc1nc(-c2cccnc2)nc2c(OC)cc(-c3ccc(Cl)cc3)cc12 [Compound 307]

row,IC50,SMILES
1,1 to 10 µM,Fc1ccc(-c2ccc3nc(-c4cccnc4)nc(Nc4cncc(F)c4)c3c2)cc1 [Compound 440]
2,1 to 10 µM,CNc1nc(-c2cccnc2)nc2ccc(-c3c(F)ccc(F)c3F)cc12 [Compound 456]
3,1 to 10 µM,CNc1nc(-c2cccnc2)nc2cc(-c3cccc(C#N)c3)c(F)cc12 [Compound 556]
4,1 to 10 µM,CNc1nc(-c2cccnc2)nc2c(F)c(-c3ccc4sccc4c3)ccc12 [Compound 529]
5,1 to 10 µM,Cc1ccc2c(c1)CCN2c1nc(-c2cccnc2)nc2ccc(-c3ccc(F)cc3F)cc12 [Compound 73]
6,1 to 10 µM,CNc1nc(-c2cccnc2)nc2ccc(-c3ccc(F)c(C(N)=O)c3)cc12 [Compound 183]
7,1 to 10 µM,CNc1nc(-c2cccnc2)nc2cc(F)c(-c3cccc(C#N)c3)cc12 [Compound 589]
8,1 to 10 µM,CNc1nc(-c2cccnc2)nc2c(F)cc(-c3ccc(OC)cc3)cc12 [Compound 573]
9,1 to 10 µM,Fc1ccc(-c2ccc3nc(-c4cccnc4)nc(Nc4ccccn4)c3c2)cc1 [Compound 437]
10,1 to 10 µM,Fc1ccc(-c2ccc3c(N4CCc5ccccc54)nc(-c4cccnc4)nc3c2)c(F)c1 [Compound 103]
11,1 to 10 µM,COc1ccc2nc(-c3cccnc3)nc(Nc3ccc4nc(C)oc4c3)c2c1 [Compound 39]
12,1 to 10 µM,CNc1nc(-c2cccnc2)nc2c(F)c(-c3ccc(C(F)(F)F)cc3)ccc12 [Compound 528]
13,1 to 10 µM,Fc1ccc2c(c1)N(c1nc(-c3cccnc3)nc3ccc(Br)cc13)CC2 [Compound 22]
14,< 1 µM,CNc1nc(-c2cccnc2)nc2c(OC)cc(-c3ccc(F)cc3F)cc12 [Compound 195]
15,1 to 10 µM,Fc1ccc(-c2ccc3nc(-c4cccnc4)nc(N4CCc5ccccc54)c3c2)cc1 [Compound 88]
16,< 1 µM,CNc1nc(-c2cccnc2)nc2cc(F)c(-c3ccc(F)c(F)c3)cc12 [Compound 591]
17,1 to 10 µM,Fc1ccc(-c2ccc3nc(-c4ccnnc4)nc(NCc4ccccn4)c3c2)c(F)c1 [Compound 329]
18,1 to 10 µM,[2H]C([2H])([2H])Nc1nc(-c2cccnc2)nc2cc(-c3cc(F)ccc3F)ccc12 [Compound 390]
19,1 to 10 µM,c1ccc(CNc2nc(-c3cccnc3)nc3ccc(-c4cccs4)cc23)nc1 [Compound 601]
20,< 1 µM,CNc1nc(-c2cccnc2)nc2ccc(-c3ccc4oc(=O)[nH]c4c3)cc12 [Compound 462]
21,1 to 10 µM,Fc1ccc(F)c(-c2ccc3nc(-c4cccnc4)nc(NCCc4ccccn4)c3c2)c1 [Compound 339]
22,< 1 µM,CNc1nc(-c2cccnc2)nc2ccc(-c3ccc4[nH]c(=O)[nH]c4c3)cc12 [Compound 168]
23,1 to 10 µM,CNc1nc(-c2cccnc2)nc2cc(-c3ccc(C)o3)ccc12 [Compound 273]
24,1 to 10 µM,COc1ccc2nc(-c3cccnc3)nc(N3CCc4ccc(Cl)cc43)c2c1 [Compound 4]
25,1 to 10 µM,CNc1nc(-c2cccnc2)nc2cc(F)c(-c3cc(F)cc(F)c3)cc12 [Compound 588]
